In test [1] the target is T1, α-1b adrenoreceptor (Mesocricetus auratus, UniProt P18841).
T1 sequence (P18841 1-515): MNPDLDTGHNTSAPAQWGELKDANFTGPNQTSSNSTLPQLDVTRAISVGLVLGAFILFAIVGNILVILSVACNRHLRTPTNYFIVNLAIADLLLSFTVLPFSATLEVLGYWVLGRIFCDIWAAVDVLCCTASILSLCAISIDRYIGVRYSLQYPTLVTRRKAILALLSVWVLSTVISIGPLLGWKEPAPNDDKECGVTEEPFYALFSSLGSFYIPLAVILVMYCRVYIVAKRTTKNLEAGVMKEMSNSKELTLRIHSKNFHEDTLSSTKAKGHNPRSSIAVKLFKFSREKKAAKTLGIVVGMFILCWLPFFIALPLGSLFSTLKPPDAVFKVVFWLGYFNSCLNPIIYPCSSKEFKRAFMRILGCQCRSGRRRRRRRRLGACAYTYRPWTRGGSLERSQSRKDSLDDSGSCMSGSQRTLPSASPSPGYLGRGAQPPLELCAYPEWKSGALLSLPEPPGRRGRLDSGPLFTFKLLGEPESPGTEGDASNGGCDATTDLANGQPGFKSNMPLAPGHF
Kind of test: biochemical. The note with it: [3H]-prazosin radioligand; cloned receptor in LTK cell membranes; read-out: Radioligand Binding (Ki, nM) 1b (Hamster). The test is classed as binding, hamster. Summed up:
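Radioactivity counted by liquid scintillation after radioligand binding to membranes. Receptors: cloned α-1a, α-1b, α-1d stably expressed in LTK mouse fibroblasts (G418 selection, SV40 early promoter); rat submaxillary gland membranes for pharmacologically defined α-1A.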

Test [2] deals with T2, α-1B adrenoreceptor (Rattus norvegicus, UniProt P15823).
T2 construct: from tissue; host or cells: rat spleen
T2 sequence (P15823 1-515): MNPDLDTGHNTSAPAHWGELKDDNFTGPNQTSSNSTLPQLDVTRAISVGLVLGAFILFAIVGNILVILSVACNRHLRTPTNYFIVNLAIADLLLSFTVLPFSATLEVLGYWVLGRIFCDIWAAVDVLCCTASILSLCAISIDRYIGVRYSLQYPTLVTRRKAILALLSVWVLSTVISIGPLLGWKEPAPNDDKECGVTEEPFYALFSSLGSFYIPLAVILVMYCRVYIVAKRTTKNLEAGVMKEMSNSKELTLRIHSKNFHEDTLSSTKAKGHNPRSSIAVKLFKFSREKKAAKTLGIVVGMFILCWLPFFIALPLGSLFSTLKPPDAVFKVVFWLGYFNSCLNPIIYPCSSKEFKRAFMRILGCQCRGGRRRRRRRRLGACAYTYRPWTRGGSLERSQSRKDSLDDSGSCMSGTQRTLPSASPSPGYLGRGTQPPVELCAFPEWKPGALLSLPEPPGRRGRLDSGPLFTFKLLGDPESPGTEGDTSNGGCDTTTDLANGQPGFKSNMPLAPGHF
The experiment in a line: cell-based. The note with it: phenylephrine-induced contraction; Schild plot; read-out: In Vitro Characterization (pA2) Rat Spleen (converted). Summed up:
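Phenylephrine dose-response curves for contraction were repeated against increasing test-agent concentrations. pA2 was derived by Schild plot [[…] vs log molarity of test agent].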

One may read the Ki as a dissociation constant, usually derived from enzyme kinetics or from competition with a known ligand.

Each structure is given as a SMILES string. Structures can show the parent of a compound that is named as a salt.

On to `COc1cccc2c1[C@@H]1CN(CCCCn3c(=O)[nH]c4c(sc5ncccc54)c3=O)C[C@H]1CO2` [Example 44, 3-[4-((3aS,9bR)-trans-9-Methoxy-1,2,3,3a,4,9b-hexahydro-[1]-benzopyrano[3,4-c]pyrrol-2-yl)butyl]-pyrido[3',2':4,5]thieno[3,2-d]pyrimidine-2,4(1H,3H)-dione hydrochloride], for which, in test [1], the inhibition constant (Ki) came to 0.622 nM. The Kb in test [2] was 4.47 nM.

Take `COc1cccc2c1[C@@H]1CN(CCCCn3c(=O)[nH]c4c(sc5nc(C)ccc54)c3=O)C[C@H]1CO2` [Example 45, 3-[4-((3aS,9bR)-trans-9-Methoxy-1,2,3,3a,4,9b-hexahydro-[1]-benzopyrano[3,4-c]pyrrol-2-yl)butyl]-7-methyl-pyrido[3',2':4,5]thieno[3,2-d]pyrimidine-2,4(1H,3H)-dione hydrochloride]: the Ki in test [1] was 1.34 nM. Also, in test [2], the Kb is 1.29 nM.

In the case of `COc1ccc2c(n1)sc1c(=O)n(CCCCN3C[C@H]4COc5cccc(OC)c5[C@@H]4C3)c(=O)[nH]c12` [Example 46, 3-[4-((3aS,9bR)-trans-9-Methoxy-1,2,3,3a,4,9b-hexahydro-[1]-benzopyrano[3,4-c]pyrrol-2-yl)butyl]-7-methoxy-pyrido[3',2':4,5]thieno[3,2-d]pyrimidine-2,4(1H,3H)-dione hydrochloride], the inhibition constant Ki in test [1] was found to be 2.58 nM. Moreover, the Kb in test [2] is 7.59 nM.

As for `COc1cccc2c1[C@@H]1CN(CCCCn3c(=O)[nH]c4c(sc5nc(Cl)ccc54)c3=O)C[C@H]1CO2` [Example 47, 3-[4-((3aS,9bR)-trans-9-Methoxy-1,2,3,3a,4,9b-hexahydro-[1]-benzopyrano[3,4-c]pyrrol-2-yl)butyl]-7-chloro-pyrido[3',2':4,5]thieno[3,2-d]pyrimidine-2,4(1H,3H)-dione hydrochloride], the Ki in test [1] was determined as 2.4 nM. Further, the Kb in test [2] is 11.2 nM.

On to `COc1cccc2c1[C@@H]1CN(CCCCn3c(=O)[nH]c4c(sc5ccnc(Cl)c54)c3=O)C[C@@H]1CO2` [Example 48, 3-[4-((3aR,9bR)-cis-9-Methoxy-1,2,3,3a,4,9b-hexahydro-[1]-benzopyrano[3,4-c]pyrrol-2-yl)butyl]-9-chloro-pyrido[3',4';4,5]thieno[3,2-d]pyrimidine-2,4(1H,3H)-dione hydrochloride], for which the inhibition constant (Ki) in test [1] is 5.75 nM. For the same compound, the Kb in test [2] was 39.8 nM.

Regarding `COc1cccc2c1[C@@H]1CN(CCCCn3c(=O)[nH]c4c(sc5ccnc(OC)c54)c3=O)C[C@H]1CO2` [Example 49, 3-[4-((3aS,9bR)-trans-9-Methoxy-1,2,3,3a,4,9b-hexahydro-[1]-benzopyrano[3,4-c]pyrrol-2-yl)butyl]-9-methoxy-pyrido[3',4':4,5]thieno[3,2-d]pyrimidine-2,4(1H,3H)-dione fumarate], in test [1], the inhibition constant Ki is 0.129 nM. The Kb in test [2] was 7.24 nM.

On to `COc1cccc2c1[C@@H]1CN(CCCCn3c(=O)[nH]c4c(sc5ncc(-c6ccccc6)nc54)c3=O)C[C@H]1CO2` [Example 50, 3-[4-((3aS,9bR)-trans-9-Methoxy-1,2,3,3a,4,9b-hexahydro-[1]-benzopyrano[3,4-c]pyrrol-2-yl)butyl]-8-phenyl-pyrazino[2',3':4,5]thieno[3,2-d]pyrimidine-2,4(1H,3H)-dione hydrochloride], for which the inhibition constant (Ki) in test [1] was determined as 20.8 nM. Besides, the Kb in test [2] was 316 nM.

Consider `COc1cccc2c1[C@@H]1CN(CCCCn3c(=O)[nH]c4c(sc5ccc(OC(C)C)nc54)c3=O)C[C@H]1CO2` [Example 51, 3-[4-((3aS,9bR)-trans-9-Methoxy-1,2,3,3a,4,9b-hexahydro-[1]-benzopyrano[3,4-c]pyrrol-2-yl)butyl]-8-isopropoxy-pyrido[2',3':4,5]thieno[3,2-d]pyrimidine-2,4(1H,3H)-dione hydrochloride], for which the Ki in test [1] turned out to be 0.868 nM. The Kb in test [2] is 33.9 nM.

Take `COc1cccc2c1[C@@H]1CN(CCCCn3c(=O)[nH]c4c(sc5c(Cl)nccc54)c3=O)C[C@@H]1CO2` [Example 53, 3-[4-((3aR,9bR)-cis-9-Methoxy-1,2,3,3a,4,9b-hexahydro-[1]-benzopyrano[3,4-c]pyrrol-2-yl)butyl]-6-chloro-pyrido[4',3':4,5]thieno[3,2-d]pyrimidine-2,4(1H,3H)-dione]: the inhibition constant Ki in test [1] is 9.42 nM. In test [2], the Kb was 63.1 nM.

As to `COc1cccc2c1[C@@H]1CN(CCCCn3c(=O)[nH]c4c(sc5c(Cl)nccc54)c3=O)C[C@H]1CO2` [Example 54, 3-[4-((3aS,9bR)-trans-9-Methoxy-1,2,3,3a,4,9b-hexahydro-[1]-benzopyrano[3,4-c]pyrrol-2-yl)butyl]-6-chloro-pyrido[4',3':4,5]thieno[3,2-d]pyrimidine-2,4(1H,3H)-dione], the Ki in test [1] amounted to 1 nM. In addition, in test [2], the Kb is 49 nM.

For `COc1cccc2c1[C@@H]1CCN(CCCCn3c(=O)[nH]c4c(sc5cccnc54)c3=O)C[C@H]1CO2` [Example 95, 3-[4-((4aS,10bR)-trans-10-Methoxy-1,3,4,4a,5,10b-hexahydro-2H-[1]-benzopyrano[3,4-c]pyrido-3-yl)butyl]-pyrido[2',3':4,5]thieno[3,2-d]pyrimidine-2.4(1H,3H)-dione dihydrochloride], the Ki in test [1] worked out at 21.6 nM. Besides, the Kb in test [2] is 19.1 nM.

`COc1cccc2c1[C@@H]1CCN(CCCCn3c(=O)[nH]c4c(sc5ncc(Cl)nc54)c3=O)C[C@H]1CO2` [Example 97, 3-[4-((4aS,10bR)-trans-10-Methoxy-1,3,4,4a,5,10b-hexahydro-2H-[1]-benzopyrano[3,4-c]pyrido-3-yl)butyl]-8-chloro-pyrazino[2',3':4,5]thieno[3,2-d]pyrimidine-2,4(1H,3H)-dione dihydrochloride]: the Ki in test [1] came to 4.7 nM. Besides, in test [2], the Kb is 17.4 nM.
